# According to a melting point compilation (Tetko et al.):
row,Structure (SMILES),melting point
1,Cc1sc(C(=O)O)cc1S(N)(=O)=O,249 to 251 °C
2,O=C(O)c1c(O)cc(F)cc1F,182 to 184 °C
3,CN1CC(C(=O)O)Cc2ccccc21 (configuration not stated),209 to 211 °C
4,CC(=O)NCCCCCC(N)=O,112 to 114 °C
5,CCn1ccc(=O)nc1S,242 to 244 °C
6,C1C2CC3CC1CC(C2)C31CO1 (configuration not stated),180 to 182 °C
7,NS(=O)(=O)c1ccc2c(c1)CCCN2,161 to 163 °C
8,CC1CN(CC(C)C(=O)NN)CC(C)O1 (configuration not stated),70 to 72 °C
9,O=C(Cn1ccnc1)c1ccc(F)cc1,150 to 152 °C
10,C=CS(=O)(=O)c1ccc(C(C)(C)C)cc1,91 to 93 °C
11,CC(C)(C)OC(=O)N1CCC(COS(C)(=O)=O)CC1,84 to 86 °C
12,Cc1nn(C)c(C)c1C(=O)NC1(C(=O)O)CCCC1,235 to 237 °C
13,O=C(O)CCNC(=O)c1ccc(Cl)cc1,167 to 169 °C
14,CCC(C)c1ccc(-n2c(S)nc3cc(Cl)ccc3c2=O)cc1 (configuration not stated),242 to 244 °C
15,CCOc1cc(C=O)cc(Cl)c1OC,55 to 57 °C
16,Nc1cc(I)ccc1Cl,56 to 58 °C
17,CC(Cl)C(=O)Nc1ccccc1C(=O)NCc1ccco1 (configuration not stated),102 to 104 °C
18,CCN(CC)C(=O)c1ccc(NC(=O)CCl)cc1,115 to 117 °C
19,Cc1cc2oc(=O)cc(CCl)c2cc1C(C)C,132 to 134 °C
20,Sc1nnc(-c2ccc(Cl)cc2)o1,88 to 90 °C
21,CN1C(=CC=O)C(C)(C)c2ccccc21,93 to 95 °C
22,O=C(CCl)Nc1ccnn1Cc1ccccc1,99 to 101 °C
23,Cc1cc(C(N)=O)c2ccccc2n1,246 to 248 °C
24,Cc1nn(CC(C)C)c(C)c1CCC(=O)O,80 to 90 °C
25,CC(=O)c1ccc(-c2ccc(Br)s2)cc1,148 to 150 °C

row,Structure (SMILES),melting point
1,O=C1CCCC(=O)N1Cc1cccc(Br)c1,76 to 78 °C
2,COC(=O)c1cc(Br)cc(S(=O)(=O)Cl)c1,59 to 61 °C
3,CC1CCN(S(=O)(=O)N2CCNCC2)CC1,61 to 63 °C
4,CC(=O)Nc1cc(F)c(S(=O)(=O)Cl)c(F)c1,133 to 135 °C
5,O=C(Nc1ccccn1)c1ccc(Br)cc1,134 to 136 °C
6,CCOCCS(N)(=O)=O,30 to 32 °C
7,Cc1nn(C(C)(C)C)c(C)c1S(=O)(=O)Cl,68 to 70 °C
8,CN(C1CCCCC1)S(=O)(=O)c1ccc(N)cc1,142 to 144 °C
9,COC(=O)c1cc2c(nc1N)CCC2,132 to 134 °C
10,COc1cc(C)c(C=O)cc1OC,70 to 72 °C
11,N#CCc1cc(Br)cnc1O,209 to 211 °C
12,Cc1cccc(-n2c(C)cc(/C=C(\C#N)C(=O)O)c2C)c1,75 to 77 °C
13,O=C(O)c1ccc(NC(=O)c2ccccc2)cc1,297 to 299 °C
14,CNC(=S)NC1CC1,108 to 110 °C
15,CC(C)c1nc(-c2cccc3ncccc23)n[nH]1,143 to 145 °C
16,N#Cc1cccc(NC(=O)CSc2ccccc2C(=O)O)c1,118 to 120 °C
17,CS(=O)(=O)c1ccccc1NN,75 to 77 °C
18,COc1ccccc1NS(=O)(=O)c1cc(N)ccc1N1CCCCC1,169 to 171 °C
19,Cc1cc2ccc(Cl)cc2nc1NN,169 to 171 °C
20,Cc1ccn2ncc(C(=O)O)c2n1,256 to 258 °C
21,CC(NC(=O)Oc1ccccc1)C(=O)O (configuration not stated),122 to 124 °C
22,Cc1cc(C)c2c(N)nsc2n1,180 to 182 °C
23,CC(NC(=O)c1ccccc1N)c1ccccc1 (configuration not stated),127 to 129 °C
24,Cc1nc(-c2cccc(N)c2)oc1C,104 to 106 °C
25,Nc1nnc(-c2ccc3c(c2)CCC3)o1,273 to 275 °C

row,Structure (SMILES),melting point
1,O=C(CCl)Nc1sc2c(c1C(=O)c1ccccc1)CCCC2,110 to 112 °C
2,Cc1ccc(S(=O)(=O)OCC2CCOCO2)cc1 (configuration not stated),63 to 65 °C
3,CC(=O)c1c(C)nn(CCS(C)(=O)=O)c1C,139 to 141 °C
4,Cc1cc(C)c(C(=O)O)[nH]1,109 to 111 °C
5,CC1(C#N)CCN(C(=O)C(F)(F)F)CC1,41 to 43 °C
6,NC(=S)COCc1ccccc1,43 to 45 °C
7,NC(=O)c1ccc(N2CCSCC2)c(N)c1,196 to 198 °C
8,N#CCN1CCC(=O)CC1,91 to 93 °C
9,Cc1cc(N2CCOCC2)ccc1N,89 to 91 °C
10,CC(C)c1noc2ncc(C(=O)O)cc12,159 to 161 °C
11,Cn1cc(S(=O)(=O)Cl)cc1C(N)=O,132 to 134 °C
12,CN1CCC(C(=O)O)CC1=O (configuration not stated),163 to 165 °C
13,Nc1ccc2c(c1)CCC(=O)N2Cc1ccc(Cl)cc1,142 to 144 °C
14,Nc1ncc(Cl)s1,90 to 92 °C
15,NC(CN1CCC(O)CC1)=NO,182 to 184 °C
16,O=C(O)C1CCC(n2cccc2)CC1 (configuration not stated),143 to 145 °C
17,Clc1ccc(SC2CCNCC2)cc1,41 to 43 °C
18,NNc1nc2cc(F)c(F)cc2[nH]1,221 to 223 °C
19,Cc1ccc(-n2cc(C=O)c(C(C)(C)C)n2)cc1,79 to 81 °C
20,Fc1cc(CBr)ccc1Br,38 to 40 °C
21,CC(C)(C)OC(=O)N1C2CCC1CC(O)C2 (configuration not stated),140 to 142 °C
22,Nc1c(C(=O)O)cc(Br)c2c1C(=O)c1ccccc1C2=O,313 to 315 °C
23,Cc1ccc(C(=O)O)n1C,149 to 151 °C
24,Cc1ccc(S(=O)(=O)N2CCCCC2)cc1NC(=O)CCl,107 to 109 °C
25,O=C(O)c1nc(NCc2ccccc2)ncc1Cl,165 to 167 °C

row,Structure (SMILES),melting point
1,NC(=S)NCCc1ccccn1,94 to 98 °C
2,Cc1ccc(-n2nnc(CC(=O)O)c2C)cc1,194 to 196 °C
3,O=C1C(Br)CCN1c1ccc(Cl)cc1 (configuration not stated),83 to 85 °C
4,Cn1ccc(CCl)cc1=O,64 to 66 °C
5,CC(=O)Oc1cc(C(=O)O)cc(OC(C)=O)c1OC(C)=O,163 to 165 °C
6,CCO/C=C(\C#N)c1nc(C)cs1,70 to 72 °C
7,Cc1cc(C)c(C)c(Oc2c(C#N)c(C)nn2C)c1,69 to 71 °C
8,C=CC(=O)Nc1cccc(Cl)c1,106 to 108 °C
9,O=CN1CC(=O)NC(=O)C1,213 to 215 °C
10,NCCC(=O)Nc1ccccc1,62 to 64 °C
11,Cc1ccc(-c2cc(CS(=O)(=O)Cl)on2)cc1,119 to 121 °C
12,COc1cc2ncc(O)nc2cc1OC,266 to 268 °C
13,CC1(O)CCc2ccccc2C1 (configuration not stated),39 to 41 °C
14,CC(=O)Cn1c(=O)oc(=O)c2ccccc21,151 to 153 °C
15,O=C(Nc1ccccn1)c1cc2ccccc2cc1O,236 to 238 °C
16,Nc1[nH]ncc1CCCO,88 to 90 °C
17,Nc1ncccc1OCC1CCCCC1,117 to 119 °C
18,CC(C)Nc1cccc(O)c1,95 to 97 °C
19,O=C(O)C1(C(=O)NC2CC2)CC1,145 to 147 °C
20,Cn1cc(Br)cc1C(=O)NN,169 to 171 °C
21,Cc1cc(C#N)ccc1NC1CC1,101 to 103 °C
22,Nc1ccc(=O)n(Cc2ccc(Cl)c(Cl)c2)c1,131 to 133 °C

# The remaining lines, values ahead:
row,melting point,Structure (SMILES)
1,84 to 86 °C,COc1ccc(C=O)cc1OCc1cccnc1
2,185 to 187 °C,Cc1nn(C(C)C)c(C)c1NC(=O)OCC(F)(F)F
3,128 to 130 °C,CNC(=O)COc1cccc(CC(=O)O)c1
4,142 to 144 °C,NCc1cccc(CS(N)(=O)=O)c1
5,184 to 186 °C,O=C(O)c1c[nH]c(-c2cccc([N+](=O)[O-])c2)n1
6,103 to 105 °C,CCc1cc(Cl)nc(-c2ccc([N+](=O)[O-])cc2)n1
7,84 to 86 °C,O=[N+]([O-])c1cc(Br)ccc1I
8,79 to 81 °C,CCOC(=O)Nc1ccc(Br)cc1N
9,73 to 75 °C,O=C(O)C1CC1c1ccc(OC(F)F)cc1 (configuration not stated)
10,207 to 209 °C,O=C(O)C=Cc1cc(Cl)ccc1OCc1ccccc1Br
11,128 to 130 °C,COc1cc(NC(C)=O)ccc1N
12,91 to 93 °C,N#Cc1ccc(Br)cc1[N+](=O)[O-]
13,310 to 312 °C,O=C(O)c1cc(/C=C/c2cccc(C(F)(F)F)c2)nc2ccc(Br)cc12
14,77 to 79 °C,COc1cccc(C(=O)NN)c1OC
15,50 to 52 °C,Nc1cc(OCC(F)(F)F)cc(OCC(F)(F)F)c1
16,82 to 84 °C,COCCOCC(=O)Nc1cccc(N)c1C
17,243 to 245 °C,O=C1CC(Cc2ccc(C(=O)O)cc2)C(=O)N1 (configuration not stated)
18,152 to 154 °C,CC(Cl)C(=O)N1CC(=O)Nc2cc(C(F)(F)F)ccc21 (configuration not stated)
19,209 to 211 °C,O=Cc1ncc(-c2cccc(Br)c2)[nH]1
20,156 to 158 °C,O=C(O)CCS(=O)(=O)Cc1cccc(Br)c1
21,85 to 87 °C,N#CCOc1ccc(Cl)cc1CBr
22,259 to 261 °C,O=C(O)c1cnc2c(OC(F)(F)F)cccc2c1O
23,115 to 117 °C,O=C(O)c1cc(S(=O)(=O)Cl)ccc1Br

row,melting point,Structure (SMILES)
1,59 to 61 °C,COCCOc1ccc(C(F)(F)F)cc1NC(=O)C(C)Cl (configuration not stated)
2,220 to 222 °C,Cc1cc(C)n(Cc2cccc(C(=O)O)c2)n1
3,62 to 64 °C,O=[N+]([O-])c1ccc(OCCO)cc1C(F)(F)F
4,161 to 163 °C,COC(=O)c1cc(C(=O)O)n(-c2ccccc2)n1
5,227 to 229 °C,O=C(O)c1nn(-c2ccc(F)cc2)cc1O
6,126 to 128 °C,O=C(O)c1cnc(Cl)c([N+](=O)[O-])c1
7,122 to 124 °C,CNC(=O)c1cccc(N)c1
8,107 to 111 °C,O=C(O)c1c(F)ccc(S(=O)(=O)Cl)c1F
9,124 to 127 °C,CNCC(O)COc1ccccc1C(F)(F)F (configuration not stated)
10,105 to 107 °C,CC(=O)CC(=O)Nc1cccc(Cl)c1
11,193 to 195 °C,NS(=O)(=O)c1cccc(NC(=O)Oc2ccccc2)c1
12,221 to 223 °C,O=C(O)c1cc(S(=O)(=O)NC2CC2)ccc1Br
13,142 to 144 °C,O=C(CCl)Nc1cc2c(cc1[N+](=O)[O-])OCO2
14,153 to 155 °C,NC(=O)Cn1cnc([N+](=O)[O-])c1
15,202 to 204 °C,Nc1cc(=O)[nH]n1-c1ccc(F)cc1
16,128 to 130 °C,NCC(O)c1cc2ccccc2s1 (configuration not stated)
17,107 to 109 °C,COc1cc(CO)c([N+](=O)[O-])cc1OCC(F)F
18,167 to 169 °C,CC1CC(C)CN(c2ccc(C(=O)O)cc2[N+](=O)[O-])C1 (configuration not stated)
19,103 to 105 °C,Cc1ccc(S(C)(=O)=O)c(N)c1
20,249 to 251 °C,O=[N+]([O-])c1ccc(-c2nnc(O)o2)cc1
21,83 to 85 °C,CCC(C)Oc1cc(C(=O)O)ccn1 (configuration not stated)
22,129 to 131 °C,O=C(O)Cc1csc(-c2ccc(F)cc2)n1
